Experimental data taken from patent publication EP3656762A1, “COMPOUNDS FOR THE TREATMENT OF NF-KB-RELATED DISEASES OR DISORDERS” (Instituto Biomar S.A., priority 2018, dated 2020).

System: Experimental Autoimmune Encephalomyelitis (EAE)
Settings: MOG35-55 induced EAE; i.p. daily from day 0; Compound 1 3 mg/kg, Cyclosporine A 10 mg/kg; score 0-8; mean ± SEM

Cyclosporine A
MaxES (Maximum EAE score): 3.0±0.1
